Results: ChEMBL document CHEMBL1152258, “Imidazo[5,1-f][1,2,4]triazin-2-amines as novel inhibitors of polo-like kinase 1” (Bioorg Med Chem Lett, 2008)
Each block holds one compound with its values, some of them ahead of it.

How the values were obtained:
[1] = target: Serine/threonine-protein kinase PLK1 (Homo sapiens, UniProt P53350); experiment: Inhibition of PLK1 expressed in baculovirus infected Trichoplusia ni cells
PC-3 = experiment: Antiproliferative activity against human PC3 cells after 72 hrs; type: functional, cell-based; details: PC-3, 72 h
HCT-116 = experiment: Antiproliferative activity against human HCT116 cells after 72 hrs; type: functional, cell-based; details: HCT-116, 72 h
NCI-H460 = experiment: Antiproliferative activity against human H460 cells after 72 hrs; type: functional, cell-based; details: NCI-H460, 72 h
RKO = experiment: Antiproliferative activity against human RKO cells after 72 hrs; type: functional, cell-based
MCF7 = experiment: Antiproliferative activity against human MCF7 cells after 72 hrs; type: functional, cell-based; details: MCF7, 72 h
[2] = Volume of distribution at steady state in mouse at 2.9 mg/kg, iv; type: ADME, organism-based; parameters: dose 2.9 mg/kg, route intravenous; details: in vivo, read-out: Vdss
[3] = Oral bioavailability in mouse; type: ADME, organism-based; details: in vivo
[4] = AUC in po dosed mouse; type: ADME, organism-based; details: plasma
[5] = Clearance in mouse at 2.9 mg/kg, iv; type: ADME, organism-based; parameters: dose 2.9 mg/kg, route intravenous; details: in vivo
[6] = Clearance in mouse at 5 mg/kg, iv; type: ADME, organism-based; parameters: dose 5 mg/kg, route intravenous; details: in vivo
[7] = target: Serine/threonine-protein kinase PLK3 (Homo sapiens, UniProt Q9H4B4); experiment: Inhibition of PLK3 expressed in baculovirus infected Trichoplusia ni cells
Sequence of Serine/threonine-protein kinase PLK3 (Q9H4B4 whole entry): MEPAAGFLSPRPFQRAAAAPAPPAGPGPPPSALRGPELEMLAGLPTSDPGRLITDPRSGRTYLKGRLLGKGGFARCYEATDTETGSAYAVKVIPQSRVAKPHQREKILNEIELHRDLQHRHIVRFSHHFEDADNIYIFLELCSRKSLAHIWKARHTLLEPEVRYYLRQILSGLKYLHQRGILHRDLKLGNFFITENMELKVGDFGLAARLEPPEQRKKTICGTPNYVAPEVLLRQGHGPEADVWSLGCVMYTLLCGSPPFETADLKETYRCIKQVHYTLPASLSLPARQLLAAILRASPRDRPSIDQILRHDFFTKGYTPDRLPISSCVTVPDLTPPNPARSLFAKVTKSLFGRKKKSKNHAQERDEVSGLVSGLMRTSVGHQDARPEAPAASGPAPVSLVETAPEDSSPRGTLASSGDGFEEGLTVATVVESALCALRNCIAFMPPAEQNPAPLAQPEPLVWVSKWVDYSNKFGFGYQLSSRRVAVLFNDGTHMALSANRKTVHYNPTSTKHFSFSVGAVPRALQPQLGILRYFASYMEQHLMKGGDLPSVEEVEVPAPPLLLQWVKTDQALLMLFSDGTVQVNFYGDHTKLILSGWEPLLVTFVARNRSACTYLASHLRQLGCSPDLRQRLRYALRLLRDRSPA

[8] = Volume of distribution at steady state in mouse at 5 mg/kg, iv; type: ADME, organism-based; parameters: dose 5 mg/kg, route intravenous; details: in vivo, read-out: Vdss

Sequence of Serine/threonine-protein kinase PLK1 (P53350 whole entry): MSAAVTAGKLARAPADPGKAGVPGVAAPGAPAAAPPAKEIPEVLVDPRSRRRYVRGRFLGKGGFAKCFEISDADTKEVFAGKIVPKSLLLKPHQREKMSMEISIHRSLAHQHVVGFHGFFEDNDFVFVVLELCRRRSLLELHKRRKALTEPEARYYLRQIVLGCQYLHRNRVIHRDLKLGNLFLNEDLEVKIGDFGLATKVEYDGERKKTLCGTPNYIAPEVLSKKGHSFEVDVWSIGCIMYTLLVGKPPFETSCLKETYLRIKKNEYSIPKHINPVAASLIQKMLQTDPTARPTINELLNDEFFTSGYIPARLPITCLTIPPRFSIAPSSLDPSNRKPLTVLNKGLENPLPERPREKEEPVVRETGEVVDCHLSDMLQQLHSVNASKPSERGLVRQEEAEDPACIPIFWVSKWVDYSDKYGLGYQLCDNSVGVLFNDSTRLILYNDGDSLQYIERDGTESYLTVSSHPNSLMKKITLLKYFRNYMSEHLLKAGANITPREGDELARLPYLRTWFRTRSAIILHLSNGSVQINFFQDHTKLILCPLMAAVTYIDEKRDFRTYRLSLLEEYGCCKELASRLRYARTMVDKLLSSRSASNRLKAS

Structure (SMILES): COc1cc(Nc2ncc3c(C)nc(-c4ccccc4[N+](=O)[O-])n3n2)cc(OC)c1OC
IC50 [1]: 1.98 µM

Structure (SMILES): Cc1nc(-c2ccccc2)n2nc(NC3CCCCC3)ncc12
IC50 [1]: > 10 µM

Structure (SMILES): Cc1nc(-c2ccccc2)n2nc(N)ncc12
IC50 [1]: > 10 µM

Structure (SMILES): COc1cc(Nc2ncc3c(C)nc(-c4ccccc4Br)n3n2)cc(OC)c1OC
IC50 [1]: 2.67 µM

Structure (SMILES): COc1cc(Nc2ncc3c(C)nc(-c4cccc(Br)c4)n3n2)cc(OC)c1OC
IC50 (PC-3): 26 µM
IC50 (HCT-116): 7.8 µM
IC50 (NCI-H460): 5.8 µM
IC50 (RKO): 7.6 µM
IC50 (MCF7): 11 µM
IC50 [1]: 0.07 µM

Structure (SMILES): Cc1nc(-c2ccccc2)n2nc(NCc3ccccc3)ncc12
IC50 [1]: 1.5 µM

Structure (SMILES): Cc1nc(-c2ccccc2)n2nc(Nc3ccc(S(N)(=O)=O)cc3)ncc12
IC50 [1]: 2.74 µM

Structure (SMILES): COc1ccccc1-c1nc(C)c2cnc(Nc3cc(OC)c(OC)c(OC)c3)nn12
IC50 [1]: 5.66 µM

Structure (SMILES): Cc1nc(-c2ccccc2)n2nc(Nc3ccc(OCCN(C)C)cc3)ncc12
IC50 [1]: 0.38 µM

Structure (SMILES): COc1cc(Nc2ncc3c(C)nc(-c4ccc(C(F)(F)F)cc4)n3n2)cc(OC)c1OC
IC50 [1]: 1.06 µM

Structure (SMILES): Cc1nc(-c2ccccc2)n2nc(NCCc3ccncc3)ncc12
IC50 [1]: > 10 µM

Structure (SMILES): COc1cc(Nc2ncc3c(C)nc(-c4cccc(C(F)(F)F)c4)n3n2)cc(OC)c1OC [GW837331X]
IC50 (PC-3): 7.8 µM
Vd [2]: 2.3 L/kg
bioavailability [3]: 18%
IC50 (HCT-116): 3.9 µM
AUC [4]: 264 ng·h/mL
IC50 (NCI-H460): 5.4 µM
IC50 (RKO): 3.2 µM
IC50 (MCF7): 4.8 µM
clearance [5]: 81 mL/min/kg

Structure (SMILES): Cc1nc(-c2ccccc2)n2nc(NCCCN3CCOCC3)ncc12 [GW874091X]
IC50 [1]: > 10 µM

More lines, main results first:

IC50 [1]: 1.2 µM
Structure (SMILES): Cc1nc(-c2ccccc2)n2nc(Nc3ccccc3)ncc12

IC50 [1]: 0.08 µM
Structure (SMILES): COc1cc(Nc2ncc3c(C)nc(-c4ccc(F)cc4)n3n2)cc(OC)c1OC

IC50 [1]: 0.68 µM
Structure (SMILES): COc1ccc(Nc2ncc3c(C)nc(-c4ccccc4)n3n2)cc1

IC50 [1]: 2.81 µM
Structure (SMILES): Cc1nc(-c2ccccc2)n2nc(Nc3ccc([N+](=O)[O-])cc3)ncc12

IC50 [1]: > 10 µM
Structure (SMILES): Cc1nc(-c2ccccc2)n2nc(Nc3cccc(C(F)(F)F)c3)ncc12

IC50 (PC-3): 12 µM
bioavailability [3]: 10%
IC50 (HCT-116): 5.3 µM
AUC [4]: 301 ng·h/mL
clearance [6]: 53 mL/min/kg
IC50 [7]: 0.09 µM
IC50 (NCI-H460): 6.5 µM
IC50 (MCF7): 5.2 µM
Vd [8]: 1.6 L/kg
Structure (SMILES): COc1cc(Nc2ncc3c(C)nc(-c4ccccc4)n3n2)cc(OC)c1OC
IC50 (RKO): 3.7 µM

IC50 [1]: 0.09 µM
Structure (SMILES): COc1ccc(Nc2ncc3c(C)nc(-c4ccccc4)n3n2)cc1OC

IC50 [1]: 0.3 µM
Structure (SMILES): COc1cccc(Nc2ncc3c(C)nc(-c4ccccc4)n3n2)c1
